# Measurements reported in patent US10292986B2, “Methods for treating epithelian mesenchymal transition related diseases” (THE BOARD OF REGENTS OF THE UNIVERSITY OF TEXAS SYSTEM, priority 2015, dated 2019).
# Columns and labels:
# [1] = tested on: C57BL6/J mice; assay: TGFβ-induced pulmonary fibrosis in mice, histology and Ashcroft scoring; type: in vivo
# Description: (§1) TGFβ-induced pulmonary fibrosis in mice. Male C57BL6/J mice aged 15 weeks were purchased from The Jackson Laboratory (Bar Harbor, Me.) and housed under pathogen-free conditions with food and water ad libitum. Mice were given multiple challenges with 1 μg/mouse of TGFβ every other day for a total of 15 TGFβ treatments. Meanwhile, mice were pre-treated with or without JQ1 (50 mg/kg body weight, i.p.) before TGFβ administration. Ten days after the last TGFβ treatment, bronchoalveolar lavages were obtained for quantifying innate immune cells and measuring cytokine and chemokine secretion; the mice were sacrificed and lung tissues taken for RNA extraction and fixed for histological examination. Whole lungs were inflated under 25 cm H2O pressure with 10% (v/v) neutral buffered formalin through the tracheal cannula and immersed in formalin for at least 24 hours. After being processed into paraffin blocks, the lungs were cut into 5-μm sections and stained either with Masson Trichrome or H&E to assess fibrotic changes in the lungs.
# Assessment of levels of pulmonary fibrosis. Pulmonary fibrosis was graded using the Ashcroft scoring method as described (Hubner et al., 2008, Biotechniques. 44:507). In brief, to determine the fibrosis histopathology score for the lung of each mouse, the entire left and right longitudinal lung sections were scored separately (score range, 0 to 9) at ×100 magnification, and the scores were combined (total score range, 0 to 18). […] were intermediate grades assigned on the basis of the predominant histology changes if features described for two distinct grades (as described) were present in the section, to account for the progressive nature of the fibrotic lesion.
# [2] = tested on: 5′ NFκB site of SNAI1, ZEB1, IL-6, and VIM promoters; assay: XChIP / Q-gPCR recruitment of transcriptional elongation complex to EMT gene promoters in hSAECs; type: cell-based, human
# Description: Dual cross-link chromatin immunoprecipitation (XChIP). […] Protein-protein cross-linking was first performed with disuccinimidyl glutarate (2mM, Pierce), followed by protein-DNA cross-linking with formaldehyde. […] Immunoprecipitates were collected with 40 μL protein A magnetic beads (Dynal Inc.), washed, and eluted in 250 μL elution buffer for 15 min at room temperature. Samples were de-cross-linked in 0.2 M NaCl at 65 ° C. for 2 h. The precipitated DNA was phenol/chloroform-extracted, precipitated with 100% ethanol, and dried.
# Quantitative real time genomic PCR (Q-gPCR). Gene enrichment in XChIP was determined by Q-gPCR using region-specific PCR primers (Table 2). Standard curves were generated using a dilution series of genomic DNA (from 1 ng to 100 ng) for each primer pair. The fold change of DNA in each immunoprecipitate was determined by normalizing the absolute amount to the input DNA reference and calculating the fold change relative to that amount in unstimulated cells.
# [3] = target: T1, Brd4 (Homo sapiens, UniProt O60885); details: chronic treatment; cited from earlier work
# [4] = tested on: GFP-Brd4; details: cited from earlier work
# [5] = tested on: hSAECs; assay: TGFβ-induced EMT gene expression in hSAECs by Q-RT-PCR; type: cell-based, human
# Description: (§2) hSAECs culture and induction of the EMT transformation. An immortalized human small airway epithelial cell (hSAEC) line established by infecting primary hSAECs with human telomerase (hTERT) and cyclin-dependent kinase (CDK)-4 retrovirus constructs was obtained from John Minna, UTSW (Ramirez et al., 2004, Cancer. Res. 64:9027-34). The immortalized hSAECs were grown in SAGM small airway epithelial cell growth medium (Lonza, Walkersville, MD) in a humidified 5% CO2 atmosphere. For induction of the EMT, hSAECs were TGFIβ-stimulated for 15 d (10 ng/ml, PeproTech, Rocky Hill, NJ). The small-molecule IKK inhibitor BMS345541 was purchased from Sigma Aldrich and used at 10 μM (Burke et al., 2003, J. Biol. Chem. 278:1450-56).
# (§3) Quantitative real-time reverse transcription-PCR (Q-RT-PCR). Total RNA was extracted using acid guanidinium phenol extraction (Tri Reagent; Sigma). For gene expression analyses, 1 μg of RNA was reverse-transcribed using SuperScript III in a 20-μl reaction mixture. The rest of the procedures were as described previously (Brasier et al., 2011, J. Virol. 85:11752-69). The forward and reverse gene-specific Q-RT-PCR primers are listed in Table 1; relative changes in gene expression were quantified using the ΔΔCT method.
# [6] = target: T1, Brd4; details: cited from earlier work
# [7] = tested on: C57BL6/J mice; assay: TGFβ-induced pulmonary fibrosis in mice, lung Q-RT-PCR of fibrotic program; type: in vivo; details: JQ1 i.p., repetitive TGFβ stimulation
# Description: as §3
# as §1, with “After being processed into paraffin blocks, the lungs were cut into 5-μm sections and stained either with Masson Trichrome or H&E to assess fibrotic changes in the lungs.” left out
# [8] = tested on: hSAECs; assay: TGFβ-induced type II EMT in hSAECs, confocal immunofluorescence microscopy; type: cell-based, human
# Description: as §2
# Immunostaining and Confocal Immunofluorescence Microscopy. hSAECs were incubated±TGFβ (10 ng/mL) for 15 days, re-plated on glass cover slips pretreated with rat tail collagen (Roche Applied Sciences), and fixed with 4% paraformaldehyde in PBS. Afterwards, the fixed cells were stained with Alexa Fluor® 568 phalloidin (Life Technologies) for cytoplasmic distribution of F-actin and also counterstained with 4′, 6-diamidino-2-phenylindole (DAPI) for nuclear staining. The cells were visualized with a Nikon fluorescence confocal microscope at a magnification of 63×.
# For immunofluorescence staining, hSAECs were plated on rat tail collagen-treated cover glasses and stimulated for the indicated times. The cells were fixed with 4% paraformaldehyde in PBS and incubated with 0.1 m ammonium chloride for 10 min. Cells were permeabilized with 0.5% Triton-100, followed by incubation in blocking buffer (5% goat serum, 0.1% IGEPAL CA-630, 0.05% NaN3, and 1% BSA) and incubated with anti-SNAIL1, anti-E-Cadherin, and anti-vimentin antibodies (Abs; Abcam, Santa Cruz, Calif.) incubation buffer (0.1% IGEPAL CA-630, 0.05% NaN3, and 2% BSA) overnight at 4 ° C. After washing, cells were stained with Alexa Fluor 488-conjugated goat anti-rabbit IgG (Life Technologies) in incubation buffer for 1 h, then visualized with a Nikon fluorescence confocal microscope, magnification 63×.
# [9] = cited from earlier work
# [10] = JQ1 i.p. (100 mg/kg in FIG. 11 legend, 50 mg/kg in methods), repetitive intranasal TGFβ 1 μg/mouse
# [11] = JQ1 10 μM, TGFβ 10 ng/mL, 15 d time course
# [12] = JQ1 10 μM, TGFβ 10 ng/mL 15 d, hSAECs
# [13] = ± BMS-345541 10 μM, TGFβ 0 or 15 d
smiles,measurement,setting,value
Cc1sc2c(c1C)C(c1ccc(Cl)cc1)=NC(CC(=O)OC(C)(C)C)c1nnc(C)n1-2 (centres unmarked) [JQ1],TGFβ-induced airway fibrosis,[1]; [10],effectively blocked
same,lung histology (Masson Trichrome),[1]; [10],histologically normal
same,combined Ashcroft score,"[1]; JQ1 mice with chronic TGFβ treatment vs chronic TGFβ alone (score 8), total score range 0 to 18",significantly lower
same,CDK9 recruitment to SNAI1,"[2]; ± JQ1, TGFβ 0 or 15 days",significantly disrupted
same,RelA recruitment to SNAI1,"[2]; ± JQ1, TGFβ 0 or 15 days",significantly disrupted
same,TGFβ-induced recruitment of BRD4 to the 5′NFκB site of SNAI1,"[2]; ± JQ1, TGFβ 0 or 15 days",significantly attenuated
same,phospho-Ser 2 CTD RNA Pol II recruitment to SNAI1,"[2]; ± JQ1, TGFβ 0 or 15 days",significantly disrupted
same,atherogenic responses and atherosclerosis,[3],attenuates
same,recovery time in FRAP assays using GFP-Brd4,[4],accelerates
same,TGFβ-induced enhanced mesenchymal gene expression,"[5]; BRD4 inhibitor JQ1, hSAECs",significantly inhibited
same,TGFβ-induced EMT gene expression in hSAECs,"[5]; JQ1 10 μM ± TGFβ 10 ng/mL 15 d, FIG. 9B",blocks
same,CDH1 expression (mRNA),"[5]; JQ1 10 μM, TGFβ 10 ng/mL, 15 d, not to levels seen in normal hSAECs",partially maintained
same,TGFβ-induced expression of FN1 mRNA,[5]; [11],significantly blocked
same,TGFβ-induced expression of IL-6 mRNA,[5]; [11],significantly blocked
same,TGFβ-induced expression of SNAI1 mRNA,[5]; [11],significantly blocked
same,TGFβ-induced expression of VIM mRNA,[5]; [11],significantly blocked
same,TGFβ-induced expression of ZEB1 mRNA,[5]; [11],significantly blocked
same,recruitment and binding of Brd4 to TNFα and E-selectin promoter elements,[6],inhibits
same,"TGFβ-induced pulmonary fibrotic program (mSNAI1, mFN-1, mαSMA, mCol1A1, mIL-6 mRNA in lung)",[7],significantly inhibited
same,the EMT (Type II EMT),"[8]; JQ1 10 μM ± TGFβ 10 ng/mL 15 days, FIG. 9A",blocks
same,TGFβ-induced acquisition of elongated shape,[8]; [12],blocked
same,TGFβ-induced stress fiber formation,[8]; [12],blocked
same,TGFβ-induced upregulation and cytosolic redistribution of SNAI1,[8]; [12],blocked
same,TGFβ-induced upregulation and cytosolic redistribution of VIM,[8]; [12],blocked
same,expression and cellular distribution of CDH1,[8]; [12],maintained
CCC(=O)O[C@]1(C(=O)SCF)[C@H](C)C[C@H]2[C@@H]3C[C@H](F)C4=CC(=O)C=C[C@]4(C)[C@@]3(F)[C@@H](O)C[C@@]21C [Fluticasone propionate],solubility in 95% ethanol,[9]; 95% ethanol,slightly soluble
same,solubility in dimethyl sulfoxide,[9]; dimethyl sulfoxide,freely soluble
same,solubility in dimethylformamide,[9]; dimethylformamide,freely soluble
same,solubility in methanol,[9]; methanol,slightly soluble
same,solubility in water,[9]; water,practically insoluble
Cc1ccc2nc(NCCN)c3ncc(C)n3c2c1 [BMS-345541],"BRD4 recruitment to EMT gene promoters (SNAI1, ZEB1, IL-6, VIM)",[2]; [13],inhibited
same,"CDK9 recruitment to EMT gene promoters (SNAI1, ZEB1, IL-6, VIM)",[2]; [13],inhibited
same,"RelA recruitment to EMT gene promoters (SNAI1, ZEB1, IL-6, VIM)",[2]; [13],inhibited
same,"phospho-Ser 2 CTD RNA Pol II recruitment to EMT gene promoters (SNAI1, ZEB1, IL-6, VIM)",[2]; [13],inhibited
same,TGFβ-induced enhanced mesenchymal gene expression,"[5]; IKK kinase inhibitor BMS-345541, hSAECs",inhibited
